Consider two compounds from US20190269656A1, “Combination Therapies Using Indazolylbenzamide Derivatives for the Treatment of Cancer” (ESANEX, INC., priority 2016, published 2019).

The nature of data set [1]: Tolerability: treatment-emergent adverse events and MTD, SNX-5422 dose escalation plus everolimus in NET patients. Format: in vivo. Conditions: in combination with everolimus, once every other day for 21 days of 28-day cycle. On the procedure: (§1) Starting on Day 1, SNX-5422 was dosed once every other day for 21 days (11 doses), followed by a 7-day drug free period. SNX-5422 was dosed each morning starting at 50 mg/m^2 with standard 3+3 dose escalation. The actual dose administered was based on body surface area, calculated using body weight measured at the start of each cycle and height at Screening. The calculated dose was then rounded to the nearest mg on dosing chart. Everolimus was dosed at 10 mg once daily in the evening (at least 8 hours after SNX-5422 dosing) for 28 days, with dose de-escalation allowed based on EVR toxicity. Eligible patients were to have unresectable gastro-entero-pancreatic or pulmonary NETs and less than 5 prior lines of anti-cancer treatment.
Results: Seventeen patients (10 male, 7 female; median age 59 years) with NETs were enrolled in the study. The maximum tolerated dose (MTD) of SNX-5422 was determined to be 75 mg/m^2 in combination with everolimus.
Tolerability: Most frequent (i.e., occurring in 6 or more patients overall) Treatment-Emergent Adverse Events (TEAEs) are provided in Table 1. All patients reported at least one TEAE. Diarrhea was the most commonly reported TEAE, occurring in 80% of patients overall. In 13 patients (65%), the event was considered related to the combination of SNX-5422 and everolimus. […]

The test system of data set [2] is unresectable gastro-entero-pancreatic or pulmonary NETs. In words: Tumor response by RECIST 1.1 in NET patients treated with SNX-5422 plus everolimus. The format is in vivo, human. On the procedure:
as §1
Tumor response was assessed at the end of every 2 cycles±2 weeks, using RECIST 1.1 criteria (Eisenhauer et al. European Journal of Cancer 45:228-247 (2009)). Partial Response (PR) was defined as at least a 30% decrease in the sum of diameters of target lesions, taking as reference the baseline sum diameters. Progressive Disease (PD) was defined as at least a 20% increase in the sum of diameters of target lesions, taking as reference the smallest sum on study. Stable disease is noted where there is no sufficient shrinkage to qualify for PR or no sufficient increase to qualify for PD.

Data set [3] deals with advanced, non-functional neuroendocrine tumours of the lung or gastrointestinal tract. Conditions: everolimus only, without SNX-5422; patients with NETs; RADIANT-4; cited from earlier work.
[4] abbreviates: of 17 NET patients evaluable, SNX-5422 plus everolimus, RECIST 1.1.
Where [5] appears, read: patients previously treated with 2 or less prior lines of treatment (FIG. 2), SNX-5422 plus everolimus.
The mark [6] stands for this setting: six patients, GI tract/lung/unknown carcinoid, ≤2 prior lines and Ki67<20% (FIG. 4), SNX-5422 plus everolimus.

Take `CC1(C)CC(=O)c2c(C(F)(F)F)nn(-c3ccc(C(N)=O)c(N[C@H]4CC[C@H](OC(=O)CN)CC4)c3)c2C1` [SNX-5422, trans-4-({2-(aminocarbonyl)-5-[6,6-dimethyl-4-oxo-3-(trifluoromethyl)-4,5,6,7-tetrahydro-1H-indazol-1-yl]phenyl}amino)cyclohexyl glycinate]: the “maximum tolerated dose (MTD)” value in data set [1] is 75 mg/m^2. In data set [2] (combination of SNX-5422 plus everolimus, NET patients), the “subjects receiving ongoing treatment for over 2 years (i.e., ≥30 cycles)” value was 2 subjects. Besides, in data set [2] (setting [4]), the “partial response as best response, % of patients” value was found to be 18%; the “partial response as best response, number of patients” value turned out to be 3 patients; the “progressive disease as best response, % of patients” value is 18%; the “progressive disease as best response, number of patients” value worked out at 3 patients. Moreover, in data set [2] (setting [4]), the “stable disease as best response, % of patients” value stood at 64% and the “stable disease as best response, number of patients” value is reported as 11 patients. Moreover, the tumor reduction in data set [2] (one patient with GI NET, 30 treatment cycles, SNX-5422 plus everolimus) was found to be 31%. For the same compound, the tumor reduction in data set [2] (one patient with lung carcinoid, 10 treatment cycles, SNX-5422 plus everolimus) is given as 51%. Further, in data set [2] (one patient with unknown carcinoid, 35 treatment cycles, SNX-5422 plus everolimus), the tumor reduction stood at 36%. The “reduction in target lesion size” value in data set [2] (one patient, SNX-5422 plus everolimus) was 51%. In addition, the “tumor measurement, second diameter (CT scan left iliac adenopathy)” value in data set [2] (patient with pulmonary carcinoid NET, after 4 cycles of treatment, baseline 4.25 cm, SNX-5422 plus everolimus) was 2.42 cm. Besides, the “tumor measurement, first diameter (CT scan left iliac adenopathy)” value in data set [2] (patient with pulmonary carcinoid NET, after 4 cycles of treatment, baseline 6.51 cm, SNX-5422 plus everolimus) stood at 3.75 cm. In data set [2] (setting [5]), the “partial response as best response, number of patients” value amounted to 3 patients; the “progressive disease as best response, number of patients” value was 1 patients; the “stable disease as best response, number of patients” value is recorded as 7 patients. In addition, in data set [2] (setting [6]), the overall response rate is listed as 50% and the “partial response, number of patients” value is reported as “three”.

Consider `CO[C@H]1C[C@@H]2CC[C@@H](C)[C@@](O)(O2)C(=O)C(=O)N2CCCC[C@H]2C(=O)O[C@H]([C@H](C)C[C@@H]2CC[C@@H](OCCO)[C@H](OC)C2)CC(=O)[C@H](C)/C=C(\C)[C@@H](O)[C@@H](OC)C(=O)[C@H](C)C[C@H](C)/C=C/C=C/C=C/1C` [everolimus, (1R,9S,12S,15R,16E,18R,19R,21R,23S,24E,26E,28E,30S,32S,35R)-1,18-dihydroxy-12-{(1R)-2-[(1 S,3R,4R)-4-(2-hydroxyethoxy)-3-methoxycyclohexyl]-1-methylethyl}-19,30-dimethoxy-15,17,21,23,29,35-hexamethyl-11,36-dioxa-4-aza-tricyclo[30.3.1.04,9]hexatriaconta-16,24,26,28-tetraene-2,3,10,14,20-pentaone], for which, in data set [3], the “partial response rate, % of patients” value was “about 2%”.
